# Data published in the supplement of paper PMC10307832.
# What was measured:
# Assay in all cases: relative viability (nuclei count vs DMSO), 5 days (fraction); higher = more cells survive
# Linifanib = compound: Cc1ccc(F)c(NC(=O)Nc2ccc(-c3cccc4[nH]nc(N)c34)cc2)c1 [Linifanib]
# In short: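 MetaXpress counted nuclei in 4× images of lung cancer cell lines that had been fixed, permeabilised and Hoechst-stained in one step. Before that, cells in 1536-well plates were kept overnight at 37 °C, pinned with five √10-spaced library-drug doses on vehicle-anchored plates, and cultured 5 days without medium change. Viability takes treated-well nuclei over vehicle-well nuclei and uses the median across plates. Plates were accepted only at control CV below 25% and at least one doubling.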
# Linifanib + Navitoclax = compound: Cc1ccc(F)c(NC(=O)Nc2ccc(-c3cccc4[nH]nc(N)c34)cc2)c1 [Linifanib] + CC1(C)CCC(c2ccc(Cl)cc2)=C(CN2CCN(c3ccc(C(=O)NS(=O)(=O)c4ccc(N[C@H](CCN5CCOCC5)CSc5ccccc5)c(S(=O)(=O)C(F)(F)F)c4)cc3)CC2)C1 [Navitoclax] (partner 0.5 µM)
# In short: (§1)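 Medians of duplicate plates are given as relative viability. That measure is the nuclei count in treated wells divided by the count in vehicle wells. Counts were taken on 4× images of lung cancer cell lines in 1536-well plates, 5 days after pin-tool dosing the day after seeding with one drug alone or a fixed anchor-drug dose plus five library-drug doses (not always all listed) in √10 steps.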
# Linifanib + Phenformin = compound: Cc1ccc(F)c(NC(=O)Nc2ccc(-c3cccc4[nH]nc(N)c34)cc2)c1 [Linifanib] + N=C(N)NC(=N)NCCc1ccccc1 [Phenformin] (partner 250 µM)
# In short: as §1
# Linifanib + Alpelisib = compound: Cc1ccc(F)c(NC(=O)Nc2ccc(-c3cccc4[nH]nc(N)c34)cc2)c1 [Linifanib] + Cc1nc(NC(=O)N2CCC[C@H]2C(N)=O)sc1-c1ccnc(C(C)(C)C(F)(F)F)c1 [Alpelisib] (partner 2 µM)
# In short: as §1
# Linifanib + Crizotinib = compound: Cc1ccc(F)c(NC(=O)Nc2ccc(-c3cccc4[nH]nc(N)c34)cc2)c1 [Linifanib] + C[C@@H](Oc1cc(-c2cnn(C3CCNCC3)c2)cnc1N)c1c(Cl)ccc(F)c1Cl [Crizotinib] (partner 1 µM)
# In short: as §1
# Linifanib + Olaparib = compound: Cc1ccc(F)c(NC(=O)Nc2ccc(-c3cccc4[nH]nc(N)c34)cc2)c1 [Linifanib] + O=C(c1cc(Cc2n[nH]c(=O)c3ccccc23)ccc1F)N1CCN(C(=O)C2CC2)CC1 [Olaparib] (partner 8 µM)
# In short: as §1
# Linifanib + Lapatinib = compound: Cc1ccc(F)c(NC(=O)Nc2ccc(-c3cccc4[nH]nc(N)c34)cc2)c1 [Linifanib] + CS(=O)(=O)CCNCc1ccc(-c2ccc3ncnc(Nc4ccc(OCc5cccc(F)c5)c(Cl)c4)c3c2)o1 [Lapatinib] (partner 2 µM)
# In short: as §1
# Linifanib + Decitabine = compound: Cc1ccc(F)c(NC(=O)Nc2ccc(-c3cccc4[nH]nc(N)c34)cc2)c1 [Linifanib] + Nc1ncn([C@H]2C[C@H](O)[C@@H](CO)O2)c(=O)n1 [Decitabine] (partner 2 µM)
# In short: as §1
# Linifanib + Pictilisib = compound: Cc1ccc(F)c(NC(=O)Nc2ccc(-c3cccc4[nH]nc(N)c34)cc2)c1 [Linifanib] + CS(=O)(=O)N1CCN(Cc2cc3nc(-c4cccc5[nH]ncc45)nc(N4CCOCC4)c3s2)CC1 [Pictilisib] (partner 1 µM)
# In short: as §1
# Linifanib + Linsitinib = compound: Cc1ccc(F)c(NC(=O)Nc2ccc(-c3cccc4[nH]nc(N)c34)cc2)c1 [Linifanib] + C[C@]1(O)C[C@@H](c2nc(-c3ccc4ccc(-c5ccccc5)nc4c3)c3c(N)nccn32)C1 [Linsitinib] (partner 1 µM)
# In short: as §1
# Linifanib + Foretinib = compound: Cc1ccc(F)c(NC(=O)Nc2ccc(-c3cccc4[nH]nc(N)c34)cc2)c1 [Linifanib] + COc1cc2c(Oc3ccc(NC(=O)C4(C(=O)Nc5ccc(F)cc5)CC4)cc3F)ccnc2cc1OCCCN1CCOCC1 [Foretinib] (partner 0.25 µM)
# In short: as §1
# Linifanib + Bortezomib = compound: Cc1ccc(F)c(NC(=O)Nc2ccc(-c3cccc4[nH]nc(N)c34)cc2)c1 [Linifanib] + CC(C)C[C@H](NC(=O)[C@H](Cc1ccccc1)NC(=O)c1cnccn1)B(O)O [Bortezomib] (partner 0.002 µM)
# In short: as §1
cell line,measurement,setting,value
A549,relative viability,Linifanib; 0.03162 µM,1.01
same,relative viability,Linifanib; 0.1 µM,1.05
same,relative viability,Linifanib; 0.3162 µM,0.996
same,relative viability,Linifanib + Navitoclax; first compound 0.03162 µM,1.18
same,relative viability,Linifanib + Navitoclax; first compound 0.1 µM,1.28
same,relative viability,Linifanib + Navitoclax; first compound 0.3162 µM,1.09
same,relative viability,Linifanib + Phenformin; first compound 0.03162 µM,0.197
same,relative viability,Linifanib + Phenformin; first compound 0.1 µM,0.215
same,relative viability,Linifanib + Phenformin; first compound 0.3162 µM,0.159
same,relative viability,Linifanib + Alpelisib; first compound 0.03162 µM,0.885
same,relative viability,Linifanib + Alpelisib; first compound 0.1 µM,0.948
same,relative viability,Linifanib + Alpelisib; first compound 0.3162 µM,0.647
same,relative viability,Linifanib + Crizotinib; first compound 0.03162 µM,0.795
same,relative viability,Linifanib + Crizotinib; first compound 0.1 µM,0.907
same,relative viability,Linifanib + Crizotinib; first compound 0.3162 µM,0.726
same,relative viability,Linifanib + Olaparib; first compound 0.03162 µM,0.369
same,relative viability,Linifanib + Olaparib; first compound 0.1 µM,0.535
same,relative viability,Linifanib + Olaparib; first compound 0.3162 µM,0.305
same,relative viability,Linifanib + Lapatinib; first compound 0.03162 µM,0.974
same,relative viability,Linifanib + Lapatinib; first compound 0.1 µM,1.06
same,relative viability,Linifanib + Lapatinib; first compound 0.3162 µM,0.929
same,relative viability,Linifanib + Decitabine; first compound 0.03162 µM,0.285
same,relative viability,Linifanib + Decitabine; first compound 0.1 µM,0.309
same,relative viability,Linifanib + Decitabine; first compound 0.3162 µM,0.374
same,relative viability,Linifanib + Pictilisib; first compound 0.03162 µM,0.399
same,relative viability,Linifanib + Pictilisib; first compound 0.1 µM,0.515
same,relative viability,Linifanib + Pictilisib; first compound 0.3162 µM,0.49
same,relative viability,Linifanib + Linsitinib; first compound 0.03162 µM,0.583
same,relative viability,Linifanib + Linsitinib; first compound 0.1 µM,0.716
same,relative viability,Linifanib + Linsitinib; first compound 0.3162 µM,0.638
same,relative viability,Linifanib + Foretinib; first compound 0.03162 µM,0.972
same,relative viability,Linifanib + Foretinib; first compound 0.1 µM,0.922
same,relative viability,Linifanib + Foretinib; first compound 0.3162 µM,0.808
Calu-6,relative viability,Linifanib; 0.03162 µM,1.05
same,relative viability,Linifanib; 0.1 µM,1.05
same,relative viability,Linifanib; 0.3162 µM,0.995
same,relative viability,Linifanib + Navitoclax; first compound 0.03162 µM,0.888
same,relative viability,Linifanib + Navitoclax; first compound 0.1 µM,0.863
same,relative viability,Linifanib + Navitoclax; first compound 0.3162 µM,0.873
same,relative viability,Linifanib + Alpelisib; first compound 0.03162 µM,1.08
same,relative viability,Linifanib + Alpelisib; first compound 0.1 µM,1.05
same,relative viability,Linifanib + Alpelisib; first compound 0.3162 µM,1.01
same,relative viability,Linifanib + Crizotinib; first compound 0.03162 µM,0.815
same,relative viability,Linifanib + Crizotinib; first compound 0.1 µM,0.768
same,relative viability,Linifanib + Crizotinib; first compound 0.3162 µM,0.826
same,relative viability,Linifanib + Bortezomib; first compound 0.03162 µM,0.978
same,relative viability,Linifanib + Bortezomib; first compound 0.1 µM,1.15
same,relative viability,Linifanib + Bortezomib; first compound 0.3162 µM,1.07
same,relative viability,Linifanib + Olaparib; first compound 0.03162 µM,0.539
same,relative viability,Linifanib + Olaparib; first compound 0.1 µM,0.602
same,relative viability,Linifanib + Olaparib; first compound 0.3162 µM,0.565
same,relative viability,Linifanib + Lapatinib; first compound 0.03162 µM,1.12
same,relative viability,Linifanib + Lapatinib; first compound 0.1 µM,1.19
same,relative viability,Linifanib + Lapatinib; first compound 0.3162 µM,1
same,relative viability,Linifanib + Pictilisib; first compound 0.03162 µM,0.93
same,relative viability,Linifanib + Pictilisib; first compound 0.1 µM,0.995
same,relative viability,Linifanib + Pictilisib; first compound 0.3162 µM,0.892
same,relative viability,Linifanib + Linsitinib; first compound 0.03162 µM,1.01
same,relative viability,Linifanib + Linsitinib; first compound 0.1 µM,0.919
same,relative viability,Linifanib + Linsitinib; first compound 0.3162 µM,0.969
same,relative viability,Linifanib + Foretinib; first compound 0.03162 µM,0.812
same,relative viability,Linifanib + Foretinib; first compound 0.1 µM,0.95
same,relative viability,Linifanib + Foretinib; first compound 0.3162 µM,0.881
EBC-1,relative viability,Linifanib; 0.03162 µM,1.02
same,relative viability,Linifanib; 0.1 µM,1.14
same,relative viability,Linifanib; 0.3162 µM,0.969
same,relative viability,Linifanib + Navitoclax; first compound 0.03162 µM,0.472
same,relative viability,Linifanib + Navitoclax; first compound 0.1 µM,0.412
same,relative viability,Linifanib + Navitoclax; first compound 0.3162 µM,0.387
same,relative viability,Linifanib + Alpelisib; first compound 0.03162 µM,0.809
same,relative viability,Linifanib + Alpelisib; first compound 0.1 µM,1.06
same,relative viability,Linifanib + Alpelisib; first compound 0.3162 µM,0.791
same,relative viability,Linifanib + Crizotinib; first compound 0.03162 µM,0.205
same,relative viability,Linifanib + Crizotinib; first compound 0.1 µM,0.208
same,relative viability,Linifanib + Crizotinib; first compound 0.3162 µM,0.224
same,relative viability,Linifanib + Bortezomib; first compound 0.03162 µM,0.551
same,relative viability,Linifanib + Bortezomib; first compound 0.1 µM,0.628
same,relative viability,Linifanib + Bortezomib; first compound 0.3162 µM,0.574
same,relative viability,Linifanib + Olaparib; first compound 0.03162 µM,0.698
same,relative viability,Linifanib + Olaparib; first compound 0.1 µM,0.757
same,relative viability,Linifanib + Olaparib; first compound 0.3162 µM,0.73
same,relative viability,Linifanib + Lapatinib; first compound 0.03162 µM,0.207
same,relative viability,Linifanib + Lapatinib; first compound 0.1 µM,0.21
same,relative viability,Linifanib + Lapatinib; first compound 0.3162 µM,0.214
same,relative viability,Linifanib + Pictilisib; first compound 0.03162 µM,0.372
same,relative viability,Linifanib + Pictilisib; first compound 0.1 µM,0.486
same,relative viability,Linifanib + Pictilisib; first compound 0.3162 µM,0.477
same,relative viability,Linifanib + Linsitinib; first compound 0.03162 µM,0.996
same,relative viability,Linifanib + Linsitinib; first compound 0.1 µM,0.864
same,relative viability,Linifanib + Linsitinib; first compound 0.3162 µM,0.731
same,relative viability,Linifanib + Foretinib; first compound 0.03162 µM,0.115
same,relative viability,Linifanib + Foretinib; first compound 0.1 µM,0.103
same,relative viability,Linifanib + Foretinib; first compound 0.3162 µM,0.112
